Data on 1 compound can be found in patent US11634447B2 (priority 2012, dated 2023).

The test concerns bacterial strain LF82 binding to the glycoprotein BSA-(Mannose)3. The test is described as follows: Bacterial Binding Assay (BBA). The class given is cell-based, Escherichia coli. To be noted: read-out: Bacterial Binding Assay IC50, LF82/Luciferase strain binding to BSA-(Man)3 coated plates, luminescence. The method, boiled down:
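Inhibition of LF82/luciferase E. coli adhesion is read as luminescence after washing off unbound cells. Compound and bacteria (10^7 per well) are co-incubated 40-75 min at room temperature on wells coated with 0.5-2 μg/mL BSA-(Man)3, with BSA-only wells as background; IC50 values derived.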

With `OC[C@H]1O[C@H](Cc2ccc(-c3ccc(C[C@H]4O[C@H](CO)[C@@H](O)[C@H](O)[C@@H]4O)cc3)cc2)[C@@H](O)[C@@H](O)[C@@H]1O` [Compound 41, ((2R,3S,4R,5S,6R)-2-(Hydroxymethyl)-6-[[4-[4-[[(2R,3S,4R,5S,6R)-3,4,5-trihydroxy-6-(hydroxymethyl)tetrahydropyran-2-yl]methyl]phenyl]phenyl]methyl]tetrahydropyran-3,4,5-triol)], the IC50 is 550 nM.
